Data: PubChem BioAssay AID256 (DTP/NCI, 2004)
“And” between values parts separate entries of the source, which are not always exact repeats. Identical values can stand only once. Toxic doses and inconclusive results are not listed.

Test system: CD2F1 mice, L1210 leukemia ip, survival T/C
Experiment: NCI In Vivo Anticancer Drug Screen. Data for tumor model L1210 Leukemia (intraperitoneal) in CD2F1 (CDF1) mice
Details: higher = longer survival
Outline: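 Activity against a transplanted murine tumor was judged by comparing the compound group with a vehicle group. The outcome in the treated animals was divided by that in the controls.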

## NC(N)=N/N=C/c1ccc(Cl)cc1
endpoint: mean survival time, dose: 20.0 mg/kg/injection, schedule: Q01DX009 (ip), vehicle: Klucel (hydroxypropylcellulose) (HPC)
  T/C: 100 % of control
endpoint: mean survival time, dose: 40.0 mg/kg/injection, schedule: Q01DX009 (ip), vehicle: Klucel (hydroxypropylcellulose) (HPC)
  T/C: 96 % of control

## CCCCCCCCCCCCc1ccc(NC(C)=O)cc1
endpoint: mean survival time, dose: 100.0 mg/kg/injection, schedule: Q04DX003 (ip), vehicle: other
  T/C: 97 % of control
endpoint: mean survival time, dose: 200.0 mg/kg/injection, schedule: Q04DX003 (ip), vehicle: other
  T/C: 95 % of control
endpoint: mean survival time, dose: 400.0 mg/kg/injection, schedule: Q04DX003 (ip), vehicle: other
  T/C: 100 % of control

## O=C1c2c(O)ccc(O)c2C(=O)c2c(NCCNCCO)ccc(NCCNCCO)c21
endpoint: mean survival time, dose: 0.13 mg/kg/injection, schedule: Q01DX005 (iv), vehicle: acid diluted with saline
  T/C: 104 % of control
endpoint: mean survival time, dose: 0.13 mg/kg/injection, schedule: Q01DX005 (iv), vehicle: clinical formulation
  T/C: 109 % of control
endpoint: mean survival time, dose: 0.13 mg/kg/injection, schedule: Q01DX009 (ip), vehicle: clinical formulation
  T/C: 276 % of control and 165 % of control
endpoint: mean survival time, dose: 0.19 mg/kg/injection, schedule: Q01DX009 (ip), vehicle: saline
  T/C: 161 % of control and 195 % of control
endpoint: mean survival time, dose: 0.25 mg/kg/injection, schedule: Q01DX005 (iv), vehicle: acid diluted with saline
  T/C: 110 % of control
endpoint: mean survival time, dose: 0.25 mg/kg/injection, schedule: Q01DX005 (iv), vehicle: saline
  T/C: 117 % of control
endpoint: mean survival time, dose: 0.25 mg/kg/injection, schedule: Q01DX009 (ip), vehicle: acid diluted with saline
  T/C: 170 % of control and 196 % of control
endpoint: mean survival time, dose: 0.25 mg/kg/injection, schedule: Q01DX009 (ip), vehicle: clinical formulation
  T/C: 404 % of control and 223 % of control
endpoint: mean survival time, dose: 0.38 mg/kg/injection, schedule: Q01DX009 (ip), vehicle: saline
  T/C: 182 % of control and 193 % of control
endpoint: mean survival time, dose: 0.5 mg/kg/injection, schedule: Q01DX005 (iv), vehicle: acid diluted with saline
  T/C: 153 % of control
endpoint: mean survival time, dose: 0.5 mg/kg/injection, schedule: Q01DX005 (iv), vehicle: clinical formulation
  T/C: 163 % of control and 159 % of control
endpoint: mean survival time, dose: 0.5 mg/kg/injection, schedule: Q01DX005 (iv), vehicle: saline
  T/C: 152 % of control
endpoint: mean survival time, dose: 0.5 mg/kg/injection, schedule: Q01DX005 (oral), vehicle: acid diluted with saline
  T/C: 102 % of control and 107 % of control
endpoint: mean survival time, dose: 0.5 mg/kg/injection, schedule: Q01DX009 (ip), vehicle: acid diluted with saline
  T/C: 150 % of control and 171 % of control and 328 % of control
endpoint: mean survival time, dose: 0.5 mg/kg/injection, schedule: Q01DX009 (ip), vehicle: clinical formulation
  T/C: 228 % of control
endpoint: mean survival time, dose: 1.0 mg/kg/injection, schedule: Q01DX005 (ip), vehicle: acid diluted with saline
  T/C: 163 % of control
endpoint: mean survival time, dose: 1.0 mg/kg/injection, schedule: Q01DX005 (iv), vehicle: acid diluted with saline
  T/C: 157 % of control and 170 % of control
endpoint: mean survival time, dose: 1.0 mg/kg/injection, schedule: Q01DX005 (iv), vehicle: clinical formulation
  T/C: 324 % of control
endpoint: mean survival time, dose: 1.0 mg/kg/injection, schedule: Q01DX005 (iv), vehicle: saline
  T/C: 180 % of control
endpoint: mean survival time, dose: 1.0 mg/kg/injection, schedule: Q01DX005 (oral), vehicle: acid diluted with saline
  T/C: 101 % of control
endpoint: mean survival time, dose: 1.0 mg/kg/injection, schedule: Q01DX009 (ip), vehicle: acid diluted with saline
  T/C: 168 % of control and 274 % of control and 307 % of control
endpoint: mean survival time, dose: 1.0 mg/kg/injection, schedule: Q01DX009 (ip), vehicle: clinical formulation
  T/C: 494 % of control
endpoint: mean survival time, dose: 1.0 mg/kg/injection, schedule: Q04DX003 (iv), vehicle: acid diluted with saline
  T/C: 151 % of control
endpoint: mean survival time, dose: 2.0 mg/kg/injection, schedule: Q01DX005 (ip), vehicle: acid diluted with saline
  T/C: 198 % of control
endpoint: mean survival time, dose: 2.0 mg/kg/injection, schedule: Q01DX005 (iv), vehicle: acid diluted with saline
  T/C: 168 % of control and 409 % of control
endpoint: mean survival time, dose: 2.0 mg/kg/injection, schedule: Q01DX005 (iv), vehicle: clinical formulation
  T/C: 171 % of control
endpoint: mean survival time, dose: 2.0 mg/kg/injection, schedule: Q01DX005 (iv), vehicle: saline
  T/C: 173 % of control
endpoint: mean survival time, dose: 2.0 mg/kg/injection, schedule: Q01DX005 (oral), vehicle: acid diluted with saline
  T/C: 102 % of control and 109 % of control
endpoint: mean survival time, dose: 2.0 mg/kg/injection, schedule: Q01DX009 (ip), vehicle: acid diluted with saline
  T/C: 246 % of control and 354 % of control
endpoint: mean survival time, dose: 2.0 mg/kg/injection, schedule: Q01DX009 (ip), vehicle: clinical formulation
  T/C: 190 % of control
endpoint: mean survival time, dose: 2.0 mg/kg/injection, schedule: Q04DX003 (ip), vehicle: acid diluted with saline
  T/C: 167 % of control and 223 % of control
endpoint: mean survival time, dose: 2.0 mg/kg/injection, schedule: Q04DX003 (iv), vehicle: acid diluted with saline
  T/C: 189 % of control
endpoint: mean survival time, dose: 3.89 mg/kg/injection, schedule: Q01DX001 (ip), vehicle: acid diluted with saline
  T/C: 190 % of control and 221 % of control
endpoint: mean survival time, dose: 3.89 mg/kg/injection, schedule: Q01DX001 (iv), vehicle: acid diluted with saline
  T/C: 163 % of control and 173 % of control
endpoint: mean survival time, dose: 4.0 mg/kg/injection, schedule: Q01DX005 (ip), vehicle: acid diluted with saline
  T/C: 256 % of control
endpoint: mean survival time, dose: 4.0 mg/kg/injection, schedule: Q01DX005 (iv), vehicle: acid diluted with saline
  T/C: 90 % of control
endpoint: mean survival time, dose: 4.0 mg/kg/injection, schedule: Q01DX005 (oral), vehicle: acid diluted with saline
  T/C: 102 % of control and 107 % of control
endpoint: mean survival time, dose: 4.0 mg/kg/injection, schedule: Q01DX009 (ip), vehicle: acid diluted with saline
  T/C: 118 % of control and 101 % of control and 102 % of control
endpoint: mean survival time, dose: 4.0 mg/kg/injection, schedule: Q04DX003 (ip), vehicle: acid diluted with saline
  T/C: 211 % of control and 230 % of control
endpoint: mean survival time, dose: 4.0 mg/kg/injection, schedule: Q04DX003 (iv), vehicle: acid diluted with saline
  T/C: 260 % of control
endpoint: mean survival time, dose: 6.48 mg/kg/injection, schedule: Q01DX001 (ip), vehicle: acid diluted with saline
  T/C: 248 % of control and 328 % of control
endpoint: mean survival time, dose: 6.48 mg/kg/injection, schedule: Q01DX001 (iv), vehicle: acid diluted with saline
  T/C: 180 % of control and 181 % of control
endpoint: mean survival time, dose: 8.0 mg/kg/injection, schedule: Q01DX005 (ip), vehicle: acid diluted with saline
  T/C: 98 % of control
endpoint: mean survival time, dose: 8.0 mg/kg/injection, schedule: Q01DX005 (oral), vehicle: acid diluted with saline
  T/C: 100 % of control and 107 % of control
endpoint: mean survival time, dose: 8.0 mg/kg/injection, schedule: Q04DX003 (ip), vehicle: acid diluted with saline
  T/C: 320 % of control
endpoint: mean survival time, dose: 8.0 mg/kg/injection, schedule: Q04DX003 (iv), vehicle: acid diluted with saline
  T/C: 163 % of control
endpoint: mean survival time, dose: 10.8 mg/kg/injection, schedule: Q01DX001 (ip), vehicle: acid diluted with saline
  T/C: 207 % of control and 309 % of control
endpoint: mean survival time, dose: 10.8 mg/kg/injection, schedule: Q01DX001 (iv), vehicle: acid diluted with saline
  T/C: 233 % of control and 261 % of control
endpoint: mean survival time, dose: 16.0 mg/kg/injection, schedule: Q01DX005 (oral), vehicle: acid diluted with saline
  T/C: 93 % of control and 109 % of control
endpoint: mean survival time, dose: 16.0 mg/kg/injection, schedule: Q04DX003 (iv), vehicle: acid diluted with saline
  T/C: 110 % of control
endpoint: mean survival time, dose: 18.0 mg/kg/injection, schedule: Q01DX001 (ip), vehicle: acid diluted with saline
  T/C: 191 % of control and 344 % of control
endpoint: mean survival time, dose: 18.0 mg/kg/injection, schedule: Q01DX001 (iv), vehicle: acid diluted with saline
  T/C: 308 % of control and 344 % of control
endpoint: mean survival time, dose: 30.0 mg/kg/injection, schedule: Q01DX001 (ip), vehicle: acid diluted with saline
  T/C: 289 % of control
endpoint: mean survival time, dose: 30.0 mg/kg/injection, schedule: Q01DX001 (iv), vehicle: acid diluted with saline
  T/C: 156 % of control
endpoint: median survival time, dose: 0.25 mg/kg/injection, schedule: Q01DX009 (ip), vehicle: acid diluted with saline
  T/C: 172 % of control
endpoint: median survival time, dose: 0.5 mg/kg/injection, schedule: Q01DX009 (ip), vehicle: acid diluted with saline
  T/C: 170 % of control and 197 % of control
endpoint: median survival time, dose: 1.0 mg/kg/injection, schedule: Q01DX009 (ip), vehicle: acid diluted with saline
  T/C: 179 % of control and 182 % of control
endpoint: median survival time, dose: 1.08 mg/kg/injection, schedule: Q04DX003 (ip), vehicle: saline
  T/C: 151 % of control
endpoint: median survival time, dose: 1.8 mg/kg/injection, schedule: Q04DX003 (ip), vehicle: saline
  T/C: 175 % of control
endpoint: median survival time, dose: 2.0 mg/kg/injection, schedule: Q01DX009 (ip), vehicle: acid diluted with saline
  T/C: 219 % of control and 370 % of control
endpoint: median survival time, dose: 2.16 mg/kg/injection, schedule: Q01DX001 (iv), vehicle: saline
  T/C: 170 % of control
endpoint: median survival time, dose: 3.6 mg/kg/injection, schedule: Q01DX001 (iv), vehicle: saline
  T/C: 170 % of control
endpoint: median survival time, dose: 5.0 mg/kg/injection, schedule: Q04DX003 (ip), vehicle: saline
  T/C: 208 % of control
endpoint: median survival time, dose: 6.0 mg/kg/injection, schedule: Q01DX001 (iv), vehicle: saline
  T/C: 196 % of control

## CC(C)CC(NC(=O)C(N)Cc1ccc(N(CCCl)CCCl)cc1)C(=O)O (stereo unspecified)
endpoint: mean survival time, dose: 1.0 mg/kg/injection, schedule: Q04DX003 (ip), vehicle: saline with Tween-80
  T/C: 106 % of control
endpoint: mean survival time, dose: 2.0 mg/kg/injection, schedule: Q04DX003 (ip), vehicle: saline with Tween-80
  T/C: 111 % of control
endpoint: mean survival time, dose: 4.0 mg/kg/injection, schedule: Q04DX003 (ip), vehicle: saline with Tween-80
  T/C: 113 % of control
endpoint: mean survival time, dose: 8.0 mg/kg/injection, schedule: Q04DX003 (ip), vehicle: saline with Tween-80
  T/C: 118 % of control
endpoint: mean survival time, dose: 32.0 mg/kg/injection, schedule: Q04DX003 (ip), vehicle: saline with Tween-80
  T/C: 112 % of control
endpoint: mean survival time, dose: 64.0 mg/kg/injection, schedule: Q04DX003 (ip), vehicle: saline with Tween-80
  T/C: 121 % of control

## CC(=O)OC(CCl)C(Cl)CCl (stereo unspecified)
endpoint: mean survival time, dose: 12.5 mg/kg/injection, schedule: Q04DX002 (ip), vehicle: saline with Tween-80
  T/C: 103 % of control
endpoint: mean survival time, dose: 25.0 mg/kg/injection, schedule: Q04DX002 (ip), vehicle: saline with Tween-80
  T/C: 106 % of control
endpoint: mean survival time, dose: 50.0 mg/kg/injection, schedule: Q04DX002 (ip), vehicle: saline with Tween-80
  T/C: 92 % of control
endpoint: mean survival time, dose: 100.0 mg/kg/injection, schedule: Q01DX001 (ip), vehicle: saline sonified
  T/C: 95 % of control
endpoint: mean survival time, dose: 200.0 mg/kg/injection, schedule: Q01DX001 (ip), vehicle: saline sonified
  T/C: 95 % of control
endpoint: mean survival time, dose: 400.0 mg/kg/injection, schedule: Q01DX001 (ip), vehicle: saline sonified
  T/C: 108 % of control
